According to US10597388B2, “Pyridazinone herbicides” (FMC CORPORATION, priority 2014, dated 2020):

Columns and labels:
Test in all cases: Test C greenhouse herbicide test, pre- and postemergence
Assay type in all cases: in vivo
[1] = tested on: nutsedge, yellow (yellow nutsedge, Cyperus esculentus)
Summary of the method: (§1)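 Seeds sown in loam–sand blend treated preemergence; plants in peat-based medium sprayed postemergence at 2–18 cm (1- to 4-leaf stage); chemicals in non-phytotoxic solvent with surfactant. Greenhouse 13–15 d, then visual rating versus controls on 0–100 scale (0 no effect, 100 complete control).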

[2] = tested on: ragweed (common ragweed, Ambrosia elatior)
Summary of the method: as §1

[3] = tested on: barnyardgrass (Echinochloa crus-galli)
Summary of the method: as §1

corn (Zea mays) = tested on: corn (Zea mays)
Summary of the method: as §1

[4] = tested on: crabgrass, large (large crabgrass, Digitaria sanguinalis)
Summary of the method: as §1

[5] = tested on: pigweed (Amaranthus retroflexus)
Summary of the method: as §1

[6] = tested on: lambsquarters (Chenopodium album)
Summary of the method: as §1

[7] = tested on: blackgrass (Alopecurus myosuroides)
Summary of the method: as §1

[8] = tested on: oilseed rape (Brassica napus)
Summary of the method: as §1

[9] = tested on: galium (catchweed bedstraw, Galium aparine)
Summary of the method: as §1

[10] = tested on: velvetleaf (Abutilon theophrasti)
Summary of the method: as §1

[11] = tested on: ryegrass, Italian (Italian ryegrass, Lolium multiflorum)
Summary of the method: as §1

[12] = tested on: morningglory (Ipomoea coccinea)
Summary of the method: as §1

[13] = tested on: waterhemp (common waterhemp, Amaranthus rudis)
Summary of the method: as §1

[14] = tested on: foxtail, giant (giant foxtail, Setaria faberii); details: Postemergence
Summary of the method: as §1

[15] = tested on: johnsongrass (Sorghum halepense)
Summary of the method: as §1

[16] = Postemergence, 31 g ai/ha, scale 0 to 100 (0 no effect, 100 complete control)
[17] = Postemergence, 125 g ai/ha, scale 0 to 100, 0 is no effect, 100 is complete control
[18] = Postemergence, 250 g ai/ha, scale 0 to 100, 0 no effect, 100 complete control, 13 to 15 d
[19] = Preemergence, 31 g ai/ha, scale 0 to 100, 0 is no effect, 100 is complete control
[20] = Preemergence, 62 g ai/ha, scale 0 to 100, 0 is no effect, 100 is complete control
[21] = Preemergence, 125 g ai/ha, scale 0 to 100, 0 is no effect, 100 is complete control
[22] = Preemergence, 250 g ai/ha, scale 0 to 100 (0 no effect, 100 complete control)
[23] = postemergence, 62 g ai/ha, scale 0 to 100, 0 no effect, 100 complete control

Cc1sc2ccc(Cl)cc2c1-c1c(OS(C)(=O)=O)c(Cl)nn(C)c1=O [Compound 114]
98: Plant response rating, Ragweed [2, 17] | Ragweed plant response rating [2, 22] | Plant response rating, Pigweed [5, 19] | Plant response rating, Lambsquarters [6, 20] | Plant response rating, Oilseed Rape [8, 20] | Plant response rating, Galium [9, 19] | Plant response rating, Galium [9, 20]
65: Plant response rating, Nutsedge, Yellow [1, 21] | Plant response rating, Waterhemp [13, 21]
5: Plant response rating, Barnyardgrass [3, 19] | Plant response rating, Corn (corn (Zea mays); [20]) | Plant response rating, Corn (corn (Zea mays); [21]) | Corn plant response rating (corn (Zea mays); [22]) | Plant response rating, Crabgrass, Large [4, 20] | Plant response rating, Blackgrass [7, 17] | Plant response rating, Blackgrass [7, 20] | Plant response rating, Blackgrass [7, 21] | Plant response rating, Johnsongrass [15, 16] | Plant response rating, Johnsongrass [15, 17]
30: Plant response rating, Barnyardgrass [3, 16] | Plant response rating, Oilseed Rape [8, 19]
60: Plant response rating, Barnyardgrass [3, 21] | Plant response rating, Velvetleaf [10, 20] | Plant response rating, Ryegrass, Italian [11, 16]
25: Plant response rating, Nutsedge, Yellow [1, 17] | Plant response rating, Crabgrass, Large [4, 18] | Plant response rating, Velvetleaf [10, 16] | Plant response rating, Morningglory [12, 19] | Plant response rating, Waterhemp [13, 16]
35: Plant response rating, Nutsedge, Yellow [1, 18] | Barnyardgrass plant response rating [3, 23]
40: Plant response rating, Nutsedge, Yellow [1, 20] | Plant response rating, Barnyardgrass [3, 17] | Plant response rating, Barnyardgrass [3, 18] | Plant response rating, Oilseed Rape [8, 17] | Plant response rating, Ryegrass, Italian [11, 19]
90: Plant response rating, Ragweed [2, 16] | Plant response rating, Pigweed [5, 20] | Plant response rating, Lambsquarters [6, 19] | Plant response rating, Lambsquarters [6, 21] | Plant response rating, Ryegrass, Italian [11, 21] | Morningglory plant response rating [12, 22]
0: Plant response rating, Corn (corn (Zea mays); [16]) | Plant response rating, Corn (corn (Zea mays); [17]) | Plant response rating, Corn (corn (Zea mays); [18]) | Plant response rating, Corn (corn (Zea mays); [19]) | Corn plant response rating (corn (Zea mays); [23]) | Plant response rating, Crabgrass, Large [4, 19] | Plant response rating, Blackgrass [7, 16] | Plant response rating, Blackgrass [7, 19] | Blackgrass plant response rating [7, 23] | Plant response rating, Johnsongrass [15, 19] | Plant response rating, Johnsongrass [15, 20] | Plant response rating, Johnsongrass [15, 21] | Johnsongrass plant response rating [15, 22]
20: Plant response rating, Crabgrass, Large [4, 17] | Crabgrass, Large plant response rating [4, 23]
15: Plant response rating, Blackgrass [7, 18] | Plant response rating, Oilseed Rape [8, 16] | Plant response rating, Johnsongrass [15, 18]
50: Plant response rating, Waterhemp [13, 19] | Plant response rating, Foxtail, Giant ([14]; 125 g ai/ha, scale 0 to 100, 0 is no effect, 100 is complete control)
10: Plant response rating, Nutsedge, Yellow [1, 16] | Plant response rating, Nutsedge, Yellow [1, 19] | Plant response rating, Barnyardgrass [3, 20] | Plant response rating, Crabgrass, Large [4, 16] | Blackgrass plant response rating [7, 22] | Plant response rating, Foxtail, Giant ([14]; 31 g ai/ha, scale 0 to 100 (0 no effect, 100 complete control))
75: Plant response rating, Ragweed [2, 20] | Plant response rating, Crabgrass, Large [4, 21] | Plant response rating, Morningglory [12, 21] | Plant response rating, Waterhemp [13, 20]
45: Plant response rating, Velvetleaf [10, 19] | Plant response rating, Waterhemp [13, 18]
55: Plant response rating, Ragweed [2, 19] | Plant response rating, Velvetleaf [10, 17] | Plant response rating, Morningglory [12, 20] | Plant response rating, Waterhemp [13, 17]
100: Plant response rating, Ragweed [2, 18] | Plant response rating, Pigweed [5, 21] | Pigweed plant response rating [5, 22] | Plant response rating, Lambsquarters [6, 17] | Plant response rating, Lambsquarters [6, 18] | Plant response rating, Oilseed Rape [8, 21] | Oilseed Rape plant response rating [8, 22] | Plant response rating, Galium [9, 21] | Galium plant response rating [9, 22] | Velvetleaf plant response rating [10, 22] | Plant response rating, Morningglory [12, 17] | Plant response rating, Morningglory [12, 18]
95: Nutsedge, Yellow plant response rating [1, 22] | Plant response rating, Ragweed [2, 21] | Barnyardgrass plant response rating [3, 22] | Plant response rating, Pigweed [5, 17] | Plant response rating, Pigweed [5, 18] | Plant response rating, Lambsquarters [6, 16] | Lambsquarters plant response rating [6, 22] | Plant response rating, Galium [9, 16] | Plant response rating, Galium [9, 17] | Plant response rating, Galium [9, 18] | Plant response rating, Ryegrass, Italian [11, 18] | Ryegrass, Italian plant response rating [11, 22] | Plant response rating, Morningglory [12, 16]
80: Crabgrass, Large plant response rating [4, 22] | Plant response rating, Pigweed [5, 16] | Plant response rating, Oilseed Rape [8, 18] | Plant response rating, Ryegrass, Italian [11, 17] | Waterhemp plant response rating [13, 22]
85: Plant response rating, Velvetleaf [10, 18] | Plant response rating, Velvetleaf [10, 21] | Plant response rating, Ryegrass, Italian [11, 20] | Plant response rating, Foxtail, Giant ([14]; 250 g ai/ha, scale 0 to 100, 0 no effect, 100 complete control, 13 to 15 d)
